Measured values taken from PubChem BioAssay AID248 (DTP/NCI, 2004).
Several values for one entry are separate records, joined by “and”; a condition that tells them apart may be missing. Equal values may be shown once. Toxic doses and inconclusive results are not listed. No stated cut-off is given here; in the data, active means T/C of 150% or more; inactive means T/C below 125%. Peptide text beside a SMILES is read from it.

Tested on: L1210 leukemia ip in BDF1 mice, survival T/C
Experiment: NCI In Vivo Anticancer Drug Screen. Data for tumor model L1210 Leukemia (intraperitoneal) in B6D2F1 (BDF1) mice
Settings: endpoint: mean survival time, higher = longer survival
Outline: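 Survival endpoint. Drug-treated group vs vehicle group, expressed as T divided by C. Tumor passaged by transplantation.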

[1] = dose: 50.0 mg/kg/injection, schedule: Q01DX009 (ip), vehicle: Klucel (hydroxypropylcellulose) (HPC)
[2] = dose: 100.0 mg/kg/injection, schedule: Q01DX009 (ip), vehicle: Klucel (hydroxypropylcellulose) (HPC)
[3] = dose: 200.0 mg/kg/injection, schedule: Q01DX009 (ip), vehicle: Klucel (hydroxypropylcellulose) (HPC)
[4] = dose: 100.0 mg/kg/injection, schedule: Q01DX001 (ip), vehicle: saline
[5] = dose: 200.0 mg/kg/injection, schedule: Q01DX001 (ip), vehicle: saline
[6] = dose: 400.0 mg/kg/injection, schedule: Q01DX001 (ip), vehicle: saline
[7] = dose: 100.0 mg/kg/injection, schedule: Q01DX001 (ip), vehicle: carboxymethylcellulose (CMC)
[8] = dose: 200.0 mg/kg/injection, schedule: Q01DX001 (ip), vehicle: carboxymethylcellulose (CMC)
[9] = dose: 50.0 mg/kg/injection, schedule: Q01DX001 (ip), vehicle: carboxymethylcellulose (CMC)
[10] = dose: 12.5 mg/kg/injection, schedule: Q01DX009 (ip), vehicle: Klucel (hydroxypropylcellulose) (HPC)
[11] = dose: 25.0 mg/kg/injection, schedule: Q01DX009 (ip), vehicle: Klucel (hydroxypropylcellulose) (HPC)
[12] = dose: 100.0 mg/kg/injection, schedule: Q04DX002 (ip), vehicle: Klucel (hydroxypropylcellulose) (HPC)
[13] = dose: 200.0 mg/kg/injection, schedule: Q04DX002 (ip), vehicle: Klucel (hydroxypropylcellulose) (HPC)
[14] = dose: 400.0 mg/kg/injection, schedule: Q01DX001 (ip), vehicle: carboxymethylcellulose (CMC)

Measured: T/C

CCN(CC)CCC(=O)c1cccc2c1OC(C)(C)C2
inactive: dose: 12.5 mg/kg/injection, schedule: Q01DX009 (ip), vehicle: saline 100 % of control and 105 % of control | dose: 12.5 mg/kg/injection, schedule: Q04DX003 (ip), vehicle: saline 103 % of control | dose: 25.0 mg/kg/injection, schedule: Q01DX009 (ip), vehicle: saline 93 % of control and 100 % of control | dose: 25.0 mg/kg/injection, schedule: Q04DX003 (ip), vehicle: saline 97 % of control | dose: 50.0 mg/kg/injection, schedule: Q01DX009 (ip), vehicle: saline 93 % of control and 102 % of control | dose: 50.0 mg/kg/injection, schedule: Q04DX003 (ip), vehicle: saline 103 % of control

COc1cccc[n+]1CC(=O)c1ccccc1
inactive: [1] 95 % of control | [2] 98 % of control | [3] 95 % of control

CC(=O)OC(C(=O)N(c1ccccc1)c1ccccc1)c1ccccc1 (configuration not stated)
inactive: dose: 100.0 mg/kg/injection, schedule: Q01DX009 (ip), vehicle: saline with Tween-80 98 % of control | dose: 200.0 mg/kg/injection, schedule: Q01DX009 (ip), vehicle: saline with Tween-80 95 % of control | dose: 400.0 mg/kg/injection, schedule: Q01DX009 (ip), vehicle: saline with Tween-80 93 % of control

CONC(=O)NC(=O)C1(c2ccccc2)CCCCC1
inactive: dose: 25.0 mg/kg/injection, schedule: Q01DX Z (ip), vehicle: carboxymethylcellulose (CMC) 96 % of control | dose: 50.0 mg/kg/injection, schedule: Q01DX Z (ip), vehicle: carboxymethylcellulose (CMC) 95 % of control | [4] 86 % of control | dose: 100.0 mg/kg/injection, schedule: Q01DX Z (ip), vehicle: carboxymethylcellulose (CMC) 95 % of control | [5] 100 % of control | dose: 200.0 mg/kg/injection, schedule: Q01DX Z (ip), vehicle: carboxymethylcellulose (CMC) 102 % of control | dose: 200.0 mg/kg/injection, schedule: Q01DX Z (ip), vehicle: methylcellulose (MC) 119 % of control | [6] 102 % of control | dose: 400.0 mg/kg/injection, schedule: Q01DX Z (ip), vehicle: carboxymethylcellulose (CMC) 96 % of control | dose: 400.0 mg/kg/injection, schedule: Q01DX Z (ip), vehicle: methylcellulose (MC) 112 % of control

Cc1cccc(/C=N/N(C)C(N)=S)n1
inactive: [7] 102 % of control | [8] 106 % of control

CC1OC1COC1COC2C(OCC3OC3C)COC12 (configuration not stated)
inactive: [4] 106 % of control | [5] 106 % of control | [6] 101 % of control

COc1ccc2[nH]c3c(C)c4c(c(C)c3c2c1)CN(C)CC4
inactive: dose: 29.0 mg/kg/injection, schedule: Q01DX Z (ip), vehicle: saline 96 % of control | dose: 44.0 mg/kg/injection, schedule: Q01DX Z (ip), vehicle: saline 98 % of control | dose: 66.0 mg/kg/injection, schedule: Q01DX Z (ip), vehicle: saline 102 % of control | [4] 105 % of control | dose: 100.0 mg/kg/injection, schedule: Q01DX Z (ip), vehicle: saline 98 % of control | dose: 150.0 mg/kg/injection, schedule: Q01DX Z (ip), vehicle: saline 100 % of control | [5] 100 % of control | [6] 102 % of control

CC1OC(n2cnc3c(N)nc(F)nc32)C(O)C1O (configuration not stated)
inactive: dose: 37.5 mg/kg/injection, schedule: Q01DX001 (ip), vehicle: other 112 % of control

O=C1CCCC/C1=N/Nc1ccccc1
inactive: dose: 5.0 mg/kg/injection, schedule: Q01DX009 (ip), vehicle: saline with Tween-80 93 % of control | dose: 5.0 mg/kg/injection, schedule: Q04DX003 (ip), vehicle: saline with Tween-80 98 % of control | dose: 10.0 mg/kg/injection, schedule: Q01DX009 (ip), vehicle: saline with Tween-80 102 % of control | dose: 10.0 mg/kg/injection, schedule: Q04DX003 (ip), vehicle: saline with Tween-80 102 % of control | dose: 20.0 mg/kg/injection, schedule: Q01DX009 (ip), vehicle: saline with Tween-80 95 % of control | dose: 20.0 mg/kg/injection, schedule: Q04DX003 (ip), vehicle: saline with Tween-80 99 % of control

CC(NC(=O)C(CCC(=O)O)NC(=O)C(N)Cc1c[nH]c2ccccc12)C(=O)NCC(=O)NC(Cc1c[nH]c2ccccc12)C(=O)NC(CCC(=O)O)C(=O)NC(C)C(=O)NCC(=O)NCC(=O)O (configuration not stated) (H-WEAGWEAGG-OH; configuration not given here)
inactive: [9] 96 % of control | [7] 98 % of control | [8] 96 % of control

O=C1NCC2(O1)c1ccccc1-c1ccccc12
inactive: dose: 25.6 mg/kg/injection, schedule: Q04DX002 (ip), vehicle: saline with Tween-80 92 % of control | dose: 64.0 mg/kg/injection, schedule: Q04DX002 (ip), vehicle: saline with Tween-80 98 % of control | dose: 160.0 mg/kg/injection, schedule: Q04DX002 (ip), vehicle: saline with Tween-80 113 % of control

CCCCOc1ccc(/C=N/NC(=O)CNC(=O)Nc2cccc(C(F)(F)F)c2)cc1
inactive: dose: 100.0 mg/kg/injection, schedule: Q01DX009 (ip), vehicle: gum acacia 86 % of control | dose: 200.0 mg/kg/injection, schedule: Q01DX009 (ip), vehicle: gum acacia 93 % of control | dose: 400.0 mg/kg/injection, schedule: Q01DX009 (ip), vehicle: gum acacia 96 % of control

CCCCCCCCCCCc1nc(N)nc(NCCc2ccccc2)n1
inactive: [10] 95 % of control | [11] 89 % of control | dose: 50.0 mg/kg/injection, schedule: Q04DX002 (ip), vehicle: Klucel (hydroxypropylcellulose) (HPC) 87 % of control | [12] 93 % of control | [13] 97 % of control

COC1OC(COC(=S)SCC2OC(OC)C(OC)C(OC)C2OC)C(OC)C(OC)C1OC (configuration not stated)
inactive: [12] 100 % of control | [13] 93 % of control and 92 % of control | dose: 400.0 mg/kg/injection, schedule: Q04DX002 (ip), vehicle: Klucel (hydroxypropylcellulose) (HPC) 96 % of control and 89 % of control

Cn1c(O)c(C=N)c(=O)[nH]c1=O
inactive: dose: 100.0 mg/kg/injection, schedule: Q01DX009 (ip), vehicle: saline 86 % of control | dose: 100.0 mg/kg/injection, schedule: Q04DX003 (ip), vehicle: saline 90 % of control | dose: 200.0 mg/kg/injection, schedule: Q01DX009 (ip), vehicle: saline 88 % of control | dose: 200.0 mg/kg/injection, schedule: Q04DX003 (ip), vehicle: saline 92 % of control | dose: 400.0 mg/kg/injection, schedule: Q01DX009 (ip), vehicle: saline 86 % of control | dose: 400.0 mg/kg/injection, schedule: Q04DX003 (ip), vehicle: saline 90 % of control

O=C(Nc1ccc(CCO)cc1)Nc1cc([N+](=O)[O-])ccc1Cl
inactive: [10] 102 % of control | [11] 104 % of control | [1] 91 % of control

CCCCCCCCCCCCCCCC(=O)N(CC#N)CC#N
inactive: dose: 100.0 mg/kg/injection, schedule: Q04DX003 (ip), vehicle: Klucel (hydroxypropylcellulose) (HPC) 91 % of control | dose: 200.0 mg/kg/injection, schedule: Q04DX003 (ip), vehicle: Klucel (hydroxypropylcellulose) (HPC) 92 % of control | dose: 400.0 mg/kg/injection, schedule: Q04DX003 (ip), vehicle: Klucel (hydroxypropylcellulose) (HPC) 89 % of control

CC1(C)CC(OP(=O)(Cl)OC2CC(C)(C)N(O)C(C)(C)C2)CC(C)(C)N1O
inactive: dose: 100.0 mg/kg/injection, schedule: Q01DX001 (ip), vehicle: water 97 % of control | dose: 200.0 mg/kg/injection, schedule: Q01DX001 (ip), vehicle: water 94 % of control | dose: 400.0 mg/kg/injection, schedule: Q01DX001 (ip), vehicle: water 94 % of control

CCOC(=O)P(C(=O)OCC)C(=O)OCC
inactive: dose: 75.0 mg/kg/injection, schedule: Q01DX001 (ip), vehicle: saline 97 % of control

O=[N+]([O-])c1ccccc1C1OCCO1
inactive: [9] 95 % of control | [7] 93 % of control | [8] 101 % of control | [14] 93 % of control

COc1ccc(CN2CCCN(Cc3ccc(OC)cc3OC)C2c2ccc(N(CCCl)CCCl)cc2Cl)c(OC)c1
inactive: [9] 101 % of control | [7] 95 % of control | [8] 98 % of control | [14] 101 % of control

S=C(Nc1ccccc1)Nc1cccc2ccccc12
inactive: dose: 50.0 mg/kg/injection, schedule: Q01DX001 (ip), vehicle: saline 97 % of control | [4] 103 % of control | [2] 105 % of control | [12] 87 % of control | [5] 97 % of control | [3] 105 % of control | [13] 87 % of control | [6] 94 % of control | dose: 400.0 mg/kg/injection, schedule: Q01DX009 (ip), vehicle: Klucel (hydroxypropylcellulose) (HPC) 112 % of control
